# How the values were obtained:
# Format in all cases: cell-based
# Botrytis cinerea = experiment: 96-well microtiter fungal growth assay;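 note: percent relative to untreated positive growth controls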
# From the text: (§1) Pathogen collection. Isolates of Colletotrichum acutatum Simmonds, Colletotrichum fragariae Brooks, and Colletotrichum gloeosporioides (Penz.) Penz. & Sacc. in Penz. were obtained from B. J. Smith, USDA, ARS, Small Fruit Research Station, Poplarville, Mass. Colletotrichum fragariae (isolate CF63), C. acutatum (isolate CAGoff), and C. gloeosporioides (isolate CG162) were used for all pathogen and bioautography studies. Isolate CF63 is one of the most virulent isolates at infecting strawberry plants and inducing both crown and fruit rot (Smith and Black, 1990). CF63, CAGoff, and CG162 were used as standard test isolates because of our extensive knowledge of these isolates and their known fungicide sensitivity profiles in both bioautography and microtiter formats. The three Colletotrichum species were isolated from strawberry (Fragaria xananassa Duchesne). Botrytis cinerea Pers.:Fr, was isolated from commercial grape (Vitis vinifera L.) and Fusarium oxysporum Schlechtend:Fr from orchid (Cynoches sp.) by David E. Wedge, USDA ARS Natural Products Utilization Research Unit. Phomopsis viticola (Sacc.) and P. obscurans (Ellis & Everh.) Sutton were from Mike A. Ellis, Ohio State University, Wooster, Ohio. Fungi were grown on potato-dextrose agar (PDA, Difco, Detroit Mich.) in 9 cm petri dishes and incubated in a growth chamber at 24±2° C. and under cool-white fluorescent lights ([…]·m^−2·sec^−1 light) with 12-h photoperiod.
# (§2) Inoculum preparation. Conidia were harvested from 7–10 day-old cultures by flooding plates with 5 mL of sterile distilled water and dislodging conidia by softly brushing the colonies with an L-shaped glass rod. Conidial suspensions were filtered through sterile miracloth (Calbiochem-Novabiochem Corp., La Jolla Calif.) to remove mycelia. Conidia concentrations were determined photometrically, from a standard curve based on the absorbance at 625 nm and suspensions were then adjusted with sterile distilled water to a concentration of 1.0×10^6 conidia/mL.
# (§3) Microtiter assay. A standardized 96-well microtiter plate assay developed for discovery of natural product fungicidal agents. A 96-well microtiter assay was used to determine sensitivity of B. cinerea, C. acutatum, C. fragariae, C. gloeosporioides, F. oxysporum, Phomopsis viticola, and P. obscurans to the various antifungal agents in comparison with known fungicidal standards. Vinclozolin, captan, and thiabendazole, which represent three different modes of action, were used as standards in this experiment. Each fungus was challenged in a dose-response format using test compounds where the final treatment concentrations were 0.3, 3.0 and 30.0 μM. Microtiter plates (Nunc MicroWell, untreated; Roskilde, Denmark) were covered with a plastic lid and incubated in a growth chamber at 24±1 C and 12 h photoperiod under 60±5 μmol light. Growth was then evaluated by measuring absorbance of each well at 620 nm using a microplate photometer (Packard Spectra Count, Packard Instrument Co., Downers Grove, Ill.).
# (§4) Microbioassay Experimental Design. Chemical sensitivity of each fungus 96-well microtiter assay is used to determine sensitivity of B. cinerea, C. acutatum, C. fragariae, C. gloeosporioides, F. oxysporum, Phomopsis viticola, and P. obscurans. Each chemical is evaluated in duplicate at each dose (0.3, 3.0 and 30.0 μM) and repeated twice in time. Sixteen wells containing broth and inoculum serves as positive controls, eight wells containing solvent at the appropriate concentration and broth without inoculum are used as negative controls. Mean absorbance values and standard errors is used to evaluate fungal growth at 48 hrs and 72 hrs except for P. obscurans and P. viticola the data are recorded at 120 hrs. […] Treatments are arranged as a split-plot design replicated twice in time. Whole-plots were fungal isolates and sub-plots are chemicals. Each dose level and response time is analyzed separately. […]
# Colletotrichum acutatum = experiment: 96-well microtiter fungal growth assay;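 note: percent relative to untreated positive growth controls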
# From the text: as §1, §2, §3, §4
# Colletotrichum fragariae = experiment: 96-well microtiter fungal growth assay;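 note: percent relative to untreated positive growth controls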
# From the text: as §1, §2, §3, §4
# [1] = test system: Colletotrichum gloeosporioides; experiment: 96-well microtiter fungal growth assay;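 note: percent relative to untreated positive growth controls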
# From the text: as §1, §2, §3, §4
# Fusarium oxysporum = experiment: 96-well microtiter fungal growth assay;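 note: percent relative to untreated positive growth controls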
# From the text: as §1, §2, §3, §4
# Phomopsis obscurans = experiment: 96-well microtiter fungal growth assay
# From the text: as §1, §2, §3
# (§5) Microbioassay Experimental Design. Chemical sensitivity of each fungus 96-well microtiter assay is used to determine sensitivity of B. cinerea, C. acutatum, C. fragariae, C. gloeosporioides, F. oxysporum, Phomopsis viticola, and P. obscurans. Each chemical is evaluated in duplicate at each dose (0.3, 3.0 and 30.0 μM) and repeated twice in time. Sixteen wells containing broth and inoculum serves as positive controls, eight wells containing solvent at the appropriate concentration and broth without inoculum are used as negative controls. […] Treatments are arranged as a split-plot design replicated twice in time. Whole-plots were fungal isolates and sub-plots are chemicals. Each dose level and response time is analyzed separately. The SAS system's analysis of variance procedure (Statistical Analysis System, Cary, N.C.) is used to identify significant factors and Fisher's protected LSD is used to separate means.
# Phomopsis viticola = experiment: 96-well microtiter fungal growth assay;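 for Mean percent fungal growth inhibition of Phomopsis viticola: percent relative to untreated positive growth controls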
# From the text: as §1, §2, §3, §5
# [2] = test system: Azole-susceptible and Azole-resistant Candida albicans Strains; experiment: Antifungal activity against azole-susceptible and azole-resistant patient isolates; conditions: for IC50 / IC80: Candida albicans
# Protocol: Antimicrobial Assay. Susceptibility testing is performed using a modified version of the National Committee for Clinical Laboratory Standards methods. M intracelluare is tested using a modified method of Franzblau, et al. Seventy-two to 96 h prior to the assay, the M intracellulare subculture is prepared by resuspending cells from the surface of the slant in Middlebrook 7H9 broth with OADC enrichment and incubating at 37° C. and 10% CO2. On the day of the assay, prepared samples (dissolved in DMSO) are serially-diluted using 20%/0.9% DMSO/saline and transferred in duplicate to 96 well flat bottom microplates. Candida spp. and C. neoformans inocula are prepared by picking 1–3 colonies from agar plates and resuspending in ˜5 mL 0.9% sterile saline. The absorption of 10011 of the saline suspensions and the M. intracellulare subculture at 630 nm using the EL-340 Biokinetics Reader (Bio-Tek Instruments, Vermont) is compared either the 0.5 McFarland standard of 0.03 (Mi) or standard curves. The microorganisms are diluted in broth [RPMI 1640/2% dextrose/MOPS at pH 7.3 (Cellgro) for Candida spp., Sabouraud Dextrose for C. neoformans, and 5% Alamar Blue™(BioSource International, Camarillo, Calif.) in Middlebrook 7H9 broth with OADC enrichment, pH=7.3 for M. intracellulare to afford final target inocula of: Candida spp.: 1.0×10^4, C. neoformans: 1.0×10^5, and M. intracellulare: 2.0×10^6 after addition to the samples. The microbial inocula are added to the samples to achieve a final volume of 200 μl. Growth (saline only), solvent and blank (media only) controls are included on each test plate. Drug controls [Ciprofloxacin (ICN Biomedicals, Ohio) for bacteria and Amphotericin B (ICN Biomedicals, Ohio) for fungi] are included in each assay. All organisms are read at either 630 nm using the EL-340 Biokinetics Reader (Bio-Tek Instruments, Vermont) or 544ex/590em, (M. intracellulare) using the Polarstar Galaxy Plate Reader (BMG LabTechnologies, Germany) prior to and after incubation: Candida spp. at 37° C. for 18–24 h, C. neoformans at 30° C. for 72 h, and M. intracellulare at 37° C. and 10% CO2 for 72 h. Percent growth is calculated and plotted versus test concentration to afford the IC50 (sample concentration that affords 50% growth of the organism) and the minimum inhibitory concentration (MIC) and minimum fungicidal or bactericidal concentrations (MFC/MBCs). The MIC is defined as the lowest test concentration that allows no detectable growth (for M. intracellulare no color change from blue to pink). Minimum fungicidal or bactericidal concentrations are determined by removing 5 μl from each clear (or blue) well, transferring to agar and incubating as previously mentioned. The MFC/MBC is defined as the lowest test concentration that kills 100% of the organism (allows no growth on agar).
# The bioassay method is a modified version of the National Committee for Clinical Laboratory Standards methods, and is same as the one described in example 8 by which the biological data of compounds 1 and 2 (Tables 1 and 2) were obtained, except that the pH of the culture media for Candida spp. was changed from 7.3 to 4.5.
# [3] = Isolate 1, azole-susceptible strain (first listing, r6)
# [4] = Isolate 1, azole-susceptible strain (second listing, r10)
# [5] = Isolate 2, azole-resistant strain
# [6] = Isolate 5, azole-resistant strain
# [7] = Isolate 8, azole-resistant strain
# [8] = Isolate 17, azole-resistant strain
smiles,measurement,setting,value
O=C1C2CC=CCC2C(=O)N1SC(Cl)(Cl)Cl (stereo not shown) [Captan],Mean percent fungal growth inhibition of Botrytis cinerea,"Botrytis cinerea; 0.3 μm, 48 hrs",3.1 ± 26.7%
same,Mean percent fungal growth inhibition of Botrytis cinerea,"Botrytis cinerea; 0.3 μm, 72 hrs",3.4 ± 5.8%
same,Mean percent fungal growth inhibition of Botrytis cinerea,"Botrytis cinerea; 3.0 μm, 48 hrs",−45.9 ± 22.2%
same,Mean percent fungal growth inhibition of Botrytis cinerea,"Botrytis cinerea; 3.0 μm, 72 hrs",−46.1 ± 5.6%
same,Mean percent fungal growth inhibition of Botrytis cinerea,"Botrytis cinerea; 30 μm, 48 hrs",−76.4 ± 13.4%
same,Mean percent fungal growth inhibition of Botrytis cinerea,"Botrytis cinerea; 30 μm, 72 hrs",−98.7 ± 0.9%
same,Mean percent fungal growth inhibition of Colletotrichum acutatum,"Colletotrichum acutatum; 0.3 μm, 48 hrs",42.5 ± 8.8%
same,Mean percent fungal growth inhibition of Colletotrichum acutatum,"Colletotrichum acutatum; 0.3 μm, 72 hrs",35.4 ± 6.1%
same,Mean percent fungal growth inhibition of Colletotrichum acutatum,"Colletotrichum acutatum; 3.0 μm, 48 hrs",−98.0 ± 0.9%
same,Mean percent fungal growth inhibition of Colletotrichum acutatum,"Colletotrichum acutatum; 3.0 μm, 72 hrs",−94.1 ± 3.0%
same,Mean percent fungal growth inhibition of Colletotrichum acutatum,"Colletotrichum acutatum; 30 μm, 48 hrs",−98.6 ± 0.5%
same,Mean percent fungal growth inhibition of Colletotrichum acutatum,"Colletotrichum acutatum; 30 μm, 72 hrs",−99.7 ± 0.2%
same,Mean percent fungal growth inhibition of Colletotrichum fragariae,"Colletotrichum fragariae; 0.3 μm, 48 hrs",18.1 ± 2.7%
same,Mean percent fungal growth inhibition of Colletotrichum fragariae,"Colletotrichum fragariae; 0.3 μm, 72 hrs",−17.5 ± 15.6%
same,Mean percent fungal growth inhibition of Colletotrichum fragariae,"Colletotrichum fragariae; 3.0 μm, 48 hrs",−96.2 ± 1.0%
same,Mean percent fungal growth inhibition of Colletotrichum fragariae,"Colletotrichum fragariae; 3.0 μm, 72 hrs",−74.0 ± 9.3%
same,Mean percent fungal growth inhibition of Colletotrichum fragariae,"Colletotrichum fragariae; 30 μm, 48 hrs",−99.7 ± 1.0%
same,Mean percent fungal growth inhibition of Colletotrichum fragariae,"Colletotrichum fragariae; 30 μm, 72 hrs",−91.4 ± 5.2%
same,Mean percent fungal growth inhibition of Colletotrichum gloeosporoides,"[1]; 0.3 μm, 48 hrs",31.5 ± 7.3%
same,Mean percent fungal growth inhibition of Colletotrichum gloeosporoides,"[1]; 0.3 μm, 72 hrs",38.6 ± 4.5%
same,Mean percent fungal growth inhibition of Colletotrichum gloeosporoides,"[1]; 3.0 μm, 48 hrs",−97.3 ± 1.5%
same,Mean percent fungal growth inhibition of Colletotrichum gloeosporoides,"[1]; 3.0 μm, 72 hrs",−95.2 ± 1.9%
same,Mean percent fungal growth inhibition of Colletotrichum gloeosporoides,"[1]; 30 μm, 48 hrs",−98.4 ± 0.5%
same,Mean percent fungal growth inhibition of Colletotrichum gloeosporoides,"[1]; 30 μm, 72 hrs",−98.6 ± 1.7%
same,Mean percent fungal growth inhibition of Fusarium oxysporum,"Fusarium oxysporum; 0.3 μm, 48 hrs",13.6 ± 3.5%
same,Mean percent fungal growth inhibition of Fusarium oxysporum,"Fusarium oxysporum; 0.3 μm, 72 hrs",12.0 ± 2.2%
same,Mean percent fungal growth inhibition of Fusarium oxysporum,"Fusarium oxysporum; 3.0 μm, 48 hrs",−50.0 ± 2.8%
same,Mean percent fungal growth inhibition of Fusarium oxysporum,"Fusarium oxysporum; 3.0 μm, 72 hrs",−5.4 ± 4.4%
same,Mean percent fungal growth inhibition of Fusarium oxysporum,"Fusarium oxysporum; 30 μm, 48 hrs",−99.4 ± 0.3%
same,Mean percent fungal growth inhibition of Fusarium oxysporum,"Fusarium oxysporum; 30 μm, 72 hrs",−99.5 ± 0.4%
same,Percent change in fungal growth vs control (negative = inhibition),"Phomopsis obscurans; 0.3 μm, 120 hrs",−37.3 ± 6.6%
same,Percent change in fungal growth vs control (negative = inhibition),"Phomopsis obscurans; 0.3 μm, 144 hrs",−30.9 ± 6.3%
same,Percent change in fungal growth vs control (negative = inhibition),"Phomopsis obscurans; 3.0 μm, 120 hrs",−96.0 ± 1.8%
same,Percent change in fungal growth vs control (negative = inhibition),"Phomopsis obscurans; 3.0 μm, 144 hrs",−98.3 ± 0.6%
same,Percent change in fungal growth vs control (negative = inhibition),"Phomopsis obscurans; 30 μm, 120 hrs",−100 ± 0.0%
same,Percent change in fungal growth vs control (negative = inhibition),"Phomopsis obscurans; 30 μm, 144 hrs",−99.6 ± 0.2%
same,Mean percent fungal growth inhibition of Phomopsis viticola,"Phomopsis viticola; 0.3 μm, 120 hrs",−118.5 ± 198.7%
same,Mean percent fungal growth inhibition of Phomopsis viticola,"Phomopsis viticola; 3.0 μm, 120 hrs",−99.8 ± 38.2%
same,Mean percent fungal growth inhibition of Phomopsis viticola,"Phomopsis viticola; 3.0 μm, 144 hrs",−95.7 ± 26.0%
same,Mean percent fungal growth inhibition of Phomopsis viticola,"Phomopsis viticola; 30 μm, 120 hrs",−100.0 ± 0.0%
same,Mean percent fungal growth inhibition of Phomopsis viticola,"Phomopsis viticola; 30 μm, 144 hrs",−67.8 ± 21.5%
same,IC50,"Phomopsis viticola; Diaporthe ampelina, 72 h, read-out: IC50 (growth inhibition)",< 3.1 µM
CCCCNC(=O)n1c(NC(=O)OC)nc2ccccc21 [benomyl],IC50,"Phomopsis obscurans; Paraphomopsis obscurans, 120 h, read-out: IC50 (growth inhibition)",< 6.25 µM
"OC(Cn1cncn1)(Cn1cncn1)c1ccc(F)cc1F [Fluconazole, reference compound]",IC50,[2]; [3],1 µg/mL
same,IC80,[2]; [3],1.5 µg/mL
same,IC50,[2]; [4],0.1 µg/mL
same,IC80,[2]; [4],0.2 µg/mL
same,IC50,[2]; [5],1 µg/mL
same,IC80,[2]; [5],5 µg/mL
same,IC50,[2]; [6],7.5 µg/mL
same,IC80,[2]; [6],10 µg/mL
same,IC50,[2]; [7],15 µg/mL
same,IC80,[2]; [7],20 µg/mL
same,IC50,[2]; [8],40 µg/mL
same,IC80,[2]; [8],95 µg/mL
same,IC95,[2]; [3],2.00 µg/mL
same,IC95,[2]; [4],100.00 µg/mL
same,IC95,[2]; [5],10.00 µg/mL
same,IC95,[2]; [6],10.00 µg/mL
same,IC95,[2]; [7],25.00 µg/mL
same,Decreases in susceptibility to fluconazole of the isolates,[2]; resistant isolates relative to susceptible strain,up to 400 fold

# Reference: patent publication US7109380B2, “Cyclopentenedione antifungal compounds and methods for their use” (The University of Mississippi, priority 2004, dated 2006)
